Data reported in paper PMC13012276 (British journal of pharmacology, 2022).
“And” between values parts separate entries of the source, which are not always exact repeats. Equal values may be shown once. Read-outs that look alike come from different tables or passages of the source. Marks after values point to notes of the source that are not given here.

How the values were obtained:
human Nav1.7 channels [1] = target: T1, human Nav1.7 channels (Homo sapiens, UniProt Q15858); assay: State-dependent inhibition of sodium currents, automated patch-clamp; type: cell-based
T1 sequence (Q15858 whole entry): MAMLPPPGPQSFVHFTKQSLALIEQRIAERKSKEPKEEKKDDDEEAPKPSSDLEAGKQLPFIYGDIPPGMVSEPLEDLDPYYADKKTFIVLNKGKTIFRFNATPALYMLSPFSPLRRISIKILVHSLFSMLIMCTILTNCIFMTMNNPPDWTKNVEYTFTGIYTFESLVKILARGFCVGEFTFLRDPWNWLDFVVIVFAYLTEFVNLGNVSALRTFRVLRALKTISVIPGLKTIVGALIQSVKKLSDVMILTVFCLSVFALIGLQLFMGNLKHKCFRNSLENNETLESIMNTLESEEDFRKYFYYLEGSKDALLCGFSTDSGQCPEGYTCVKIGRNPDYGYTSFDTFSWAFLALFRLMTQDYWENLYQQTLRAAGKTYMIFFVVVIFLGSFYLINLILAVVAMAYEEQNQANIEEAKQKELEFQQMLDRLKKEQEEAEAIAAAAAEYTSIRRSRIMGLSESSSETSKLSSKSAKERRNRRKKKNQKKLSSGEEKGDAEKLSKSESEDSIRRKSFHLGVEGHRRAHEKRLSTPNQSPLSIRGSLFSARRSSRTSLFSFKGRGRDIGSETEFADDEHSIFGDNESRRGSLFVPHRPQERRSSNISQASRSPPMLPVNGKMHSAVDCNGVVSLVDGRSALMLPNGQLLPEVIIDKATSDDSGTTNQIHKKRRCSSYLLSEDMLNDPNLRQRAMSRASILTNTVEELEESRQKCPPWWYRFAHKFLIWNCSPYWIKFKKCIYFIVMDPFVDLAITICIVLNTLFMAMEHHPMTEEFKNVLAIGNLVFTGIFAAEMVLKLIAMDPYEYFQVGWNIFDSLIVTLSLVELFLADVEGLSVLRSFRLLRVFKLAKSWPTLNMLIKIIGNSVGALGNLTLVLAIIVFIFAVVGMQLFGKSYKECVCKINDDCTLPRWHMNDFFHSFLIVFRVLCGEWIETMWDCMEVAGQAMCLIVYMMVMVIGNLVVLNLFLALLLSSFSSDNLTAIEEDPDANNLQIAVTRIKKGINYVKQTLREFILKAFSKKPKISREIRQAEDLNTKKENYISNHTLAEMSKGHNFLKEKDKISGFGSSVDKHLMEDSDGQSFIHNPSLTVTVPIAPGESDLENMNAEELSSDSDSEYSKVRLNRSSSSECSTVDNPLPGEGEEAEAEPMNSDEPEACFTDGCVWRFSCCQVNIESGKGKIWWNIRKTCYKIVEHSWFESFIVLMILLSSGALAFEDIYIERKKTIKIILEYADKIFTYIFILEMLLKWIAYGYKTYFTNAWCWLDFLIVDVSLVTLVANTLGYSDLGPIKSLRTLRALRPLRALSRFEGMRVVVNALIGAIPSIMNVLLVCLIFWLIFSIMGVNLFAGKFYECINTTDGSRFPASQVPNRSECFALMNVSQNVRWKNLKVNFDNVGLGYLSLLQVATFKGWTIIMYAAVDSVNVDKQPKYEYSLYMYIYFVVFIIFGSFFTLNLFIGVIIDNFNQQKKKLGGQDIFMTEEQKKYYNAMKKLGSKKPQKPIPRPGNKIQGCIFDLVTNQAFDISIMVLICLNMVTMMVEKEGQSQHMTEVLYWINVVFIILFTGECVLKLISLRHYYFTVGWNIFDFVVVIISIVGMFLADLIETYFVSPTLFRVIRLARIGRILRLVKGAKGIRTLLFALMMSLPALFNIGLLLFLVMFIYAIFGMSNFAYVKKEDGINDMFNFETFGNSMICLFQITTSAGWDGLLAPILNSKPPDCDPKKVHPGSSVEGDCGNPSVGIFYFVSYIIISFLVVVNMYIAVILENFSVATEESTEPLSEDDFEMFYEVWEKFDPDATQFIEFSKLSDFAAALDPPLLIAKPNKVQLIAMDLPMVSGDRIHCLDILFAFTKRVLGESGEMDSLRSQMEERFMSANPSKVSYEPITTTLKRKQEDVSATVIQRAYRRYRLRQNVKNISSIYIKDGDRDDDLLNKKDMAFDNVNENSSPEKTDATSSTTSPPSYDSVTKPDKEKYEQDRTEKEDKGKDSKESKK
T1 sequence (Q07699 19-218 partner): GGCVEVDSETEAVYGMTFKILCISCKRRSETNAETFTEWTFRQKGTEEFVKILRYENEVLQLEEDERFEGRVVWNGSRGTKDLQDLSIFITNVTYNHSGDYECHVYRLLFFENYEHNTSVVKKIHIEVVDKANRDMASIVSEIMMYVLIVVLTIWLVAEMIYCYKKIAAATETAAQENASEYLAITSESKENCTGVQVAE

[2] = test system: TTX-resistant Nav current in rat DRG neurons; type: cell-based
human Nav1.7 channels [3] = target: T1, human Nav1.7 channels; assay: Activation / peak conductance protocol, automated patch-clamp; type: cell-based
human Nav1.7 channels [4] = target: T1, human Nav1.7 channels; assay: Steady-state inactivation; type: cell-based
[5] = test system: voltage-gated sodium (Nav) channels in rat CA1 hippocampal neurons; conditions: cited from earlier work
Nav channels [6] = assay: CBD inhibition of Nav channels; type: cell-based; conditions: Table 1, from literature CBD values
Nav channels [7] = conditions: ref Ghovanloo, Shuart, et al. (2018), cited from earlier work
[8] = test system: TTX-sensitive Nav channels; conditions: read-out: IC50 of TTX-sensitive channels; cited from earlier work

CCCCCc1cc(O)c(C/C=C(\C)CCC=C(C)C)c(O)c1 [CBG, cannabigerol]
Concentration/fold state dependence (ratio) (human Nav1.7 channels [1]): 2 | Fold less potent than CBD in inhibiting Nav channels (human Nav1.7 channels [1]): about 2 fold | Hill slope (human Nav1.7 channels [1]): 1.2 ± 0.3 and 2.3 ± 0.5 and 1.6 ± 0.4 | Hill slopes (range across holding potentials) (human Nav1.7 channels [1]): 1.2–2.3 | Ki (human Nav1.7 channels [1]): 2 to 20 µM | Nav channels prevented from opening (human Nav1.7 channels [1]): ~ 30% | State dependence (human Nav1.7 channels [1]): ~10 | State dependence (inactivated vs resting state potency) (human Nav1.7 channels [1]): ~ 10 fold and ~ 11 fold | average Hill-slope (human Nav1.7 channels [1]): ~ 2 | IC50 (human Nav1.7 channels [1]; IC50 (range across holding potentials), holding potentials −110 to −90 mV): 4.6 to 18.8 µM | IC50 (human Nav1.7 channels [1]; IC50, holding potential −90 mV, pulse 180 (3 min), mean ± SEM): 4.6 ± 1.1 µM | IC50 (human Nav1.7 channels [1]; IC50, holding potential −100 mV, pulse 180 (3 min), mean ± SEM): 9.3 ± 1 µM | IC50 (human Nav1.7 channels [1]; IC50, holding potential −110 mV, pulse 180 (3 min), mean ± SEM): 18.8 ± 2.9 µM | Inhibition of TTX-resistant current [2]: ~ 50% | IC50 (human Nav1.7 channels [3]): ~3.5 µM | Reduction in sodium current density (human Nav1.7 channels [3]): ~ 90% | V1/2 of activation (human Nav1.7 channels [3]): −46.4 ± 5.6 mV | Vehicle Gmax left (human Nav1.7 channels [3]): ~ 10% | slope of activation (human Nav1.7 channels [3]): 5.2 ± 2.2 | Hyperpolarization of voltage dependence of SSI (human Nav1.7 channels [4]): ~ 12 mV | Percentage shift of inactivation V1/2 relative to vehicle (human Nav1.7 channels [4]): about 25% | Rate time constant of open-state inactivation vs vehicle (human Nav1.7 channels [4]): did not differ significantly | IC50 (human Nav1.7 channels [4]; IC50 for V1/2 (inactivation shift), Hill fit of normalized data, estimated): ~13.2 µM | inhibition at 15 µM (human Nav1.7 channels [4]; read-out: Inhibition of current at the test pulse): ~90% | Effect on Nav current density and action potential frequency [5]: decreases current density

C=C(C)[C@@H]1CCC(C)=C[C@H]1c1c(O)cc(CCCCC)cc1O [CBD, cannabidiol]
Concentration/fold state dependence (ratio) (Nav channels [6]): 1.1 | State dependence (Nav channels [7]; Table 1): ~10^a | IC50 (Nav channels [7]; read-out: IC50 on Nav channels, Table 1): 1 to 12 µM | State dependence (Nav channels [7]): ~ 10 fold

NC1=N[C@H](O)[C@H]2[C@H]3O[C@]4(O)O[C@@H]([C@@H](O)[C@@]2(N1)[C@@H]4O)[C@]3(O)CO [TTX, tetrodotoxin]
IC50 [8]: 0.01 to 0.03 µM
